Where “and” joins values, the source holds several entries; their conditions need not be identical. Identical values can stand only once. Peptide text beside a SMILES is read from it. * marks the point of attachment. Cbz = O=C(OCc1ccccc1)*; CH2Cl = ClC*; CH2F = FC*
Assays:
Type in all cases: toxicity, cell-based
HEK-293T = test: Incucyte cell viability with HEK293T; details: human, 24 h, 10 µM, compound concentration 10 uM
Fibroblast = test: Incucyte cell viability with human fibroblast; details: 24 h, 10 µM, compound concentration 10 uM
U2OS = test: Incucyte cell viability with U2OS; details: human, 24 h, 10 µM, compound concentration 10 uM
Further: unitless GR value; below 1 slowed growth and below 0 cell loss.

Compound | Growth Rate (HEK-293T; replicate number 1) | Growth Rate (HEK-293T; replicate number 2) | Growth Rate (Fibroblast; replicate number 1) | Growth Rate (U2OS; replicate number 1) | Growth Rate (U2OS; replicate number 2) | Growth Rate (Fibroblast; replicate number 2)
Cc1ccc(F)c2cc(C(=O)N[C@@H]3CCC[C@H](N4CC[C@H](N(C)S(C)(=O)=O)C4)C3)[nH]c12 | 0.35 | 0.62 | 1 | 1 | 0.67 | –
N#Cc1ccc([C@H]2CCCC[C@H]2O)cc1C(F)(F)F | 0.83 | 0.95 | 0.21 | 1 | 0.84 | 1
C=C(C)[C@@H](CC=C(C)C)C[C@@]12C[C@@H](CC=C(C)C)C(C)(C)[C@@](CC=C(C)C)(C(=O)C(C(=O)c3ccc(O)c(O)c3)=C1O)C2=O [GARCINOL] | 0.69 | 0.83 | 0.23 | 1 | 0.75 | 1
CC(=O)N[C@@H](Cc1ccc(O)cc1)C(=O)N[C@H](C(=O)N[C@@H](C)C(=O)N[C@H](C=O)CC(=O)O)C(C)C | 0.6 | 0.86 | 0.86 | 0.78 | 0.63 | 0.09
O=C(CCCCCCNC(=O)c1cnc(N(c2ccccc2)c2ccccc2Cl)nc1)NO [CITARINOSTAT] | 0.9 | 1 | 1 | -0.08 | 0.29 | 0.2
CC(C)(C)OC(=O)Nc1ccc(-c2cc(C(=O)NCCCCCCC(=O)NO)no2)cc1 | 0.72 | 0.67 | 1 | 0.28 | 0.63 | -0.09
CCCOC(=O)N1CCN(C(=O)c2ccc3c(Cl)cc(-c4ccc(C5(N)CC5)cc4)nc3c2)C[C@H]1C | 0.01 | 0.3 | 1 | 0.52 | 1 | -0.86
CC(C)N(CCCNC(=O)Nc1ccc(C(C)(C)C)cc1)C[C@H]1O[C@@H](n2ccc3c(N)ncnc32)[C@H](O)[C@@H]1O | 0.74 | 0.84 | 1 | 1 | 0.59 | –
O=C(CCCCCCNC(=O)c1cnc(N(c2ccccc2)c2ccccc2)nc1)NO [RICOLINOSTAT] | 0.73 | 1 | 0.23 | 0 | 0.16 | -0.16
C[C@H](CN[C@@H](C(=O)Nc1ccc(-c2cnn(C)c2)cn1)c1ccccc1)c1ccc(C#N)cc1 | 0.04 | 0.3 | 0.34 | 0.58 | 0.39 | -0.53
CC(=O)N[C@@H](Cc1ccccc1)C(=O)N[C@@H](CC(C)C)C(=O)N[C@H](C(=O)N[C@@H](CC(=O)O)C(=O)CCl)[C@@H](C)O (Ac-FLTD-CH2Cl) | 0.96 | 0.99 | 0.51 | 0.81 | 0.66 | 1
Nc1ccccc1NC(=O)c1ccc(CNc2nccc(-c3cccnc3)n2)cc1 [MOCETINOSTAT] | 0.33 | 0.39 | 1 | -0.13 | 0.28 | -0.28
CC/C(=C(/c1ccc(/C=C/C(=O)O)cc1)c1ccc2[nH]ncc2c1)c1ccc(F)cc1Cl [BRILANESTRANT] | 0.82 | 0.87 | 1 | 1 | 0.77 | –
O=C(O)/C(S)=C/c1ccc(I)cc1 | 0.71 | 0.86 | 1 | 1 | – | 0.47
COc1cccc(OC)c1S(=O)(=O)Nc1noc2cc(Cn3cccn3)cc(OC)c12 | 0.71 | 0.55 | 0.79 | 0.39 | 1 | 1
COC(=O)CC[C@H](NC(=O)[C@H](C)NC(=O)OCc1ccccc1)C(=O)N[C@H](C(=O)N[C@@H](CC(=O)OC)C(=O)CF)C(C)C (Cbz-AE(OMe)VD(OMe)-CH2F) | 0.7 | 0.98 | 0.35 | 1 | – | 1
O=C1C(=O)N(Cc2ccccc2)c2ccc(S(=O)(=O)N3CCC[C@H]3COc3ccc(C(F)(F)F)cc3)cc21 | -0.25 | -0.13 | -0.08 | -0.63 | -0.25 | 0.99
CC(C)(O)c1ccc(-c2nc3c(F)cc(F)cc3c(=O)[nH]2)cc1 | 0.45 | 1 | 0.13 | 0.23 | 1 | 0.87

Compound | Growth Rate (HEK-293T; replicate number 1) | Growth Rate (HEK-293T; replicate number 2) | Growth Rate (Fibroblast; replicate number 1) | Growth Rate (U2OS; replicate number 1) | Growth Rate (U2OS; replicate number 2) | Growth Rate (Fibroblast; replicate number 2)
CN(C)CCCN(CC[C@H](N)C(=O)O)C[C@H]1O[C@@H](n2cnc3c(N)ncnc32)[C@H](O)[C@@H]1O.O=C(O)C(F)(F)F | 0.85 | 0.98 | 0.74 | 1 | – | 0.03
Cl.Cl.Nc1ncnc2c1ncn2[C@@H]1O[C@H](C(=O)N2CCN(CC(=O)Nc3cccc4c3CNC4=O)CC2)[C@@H](O)[C@H]1O | 0.67 | 1 | 1 | 1 | 0.84 | –
O=C1Cc2cc(C(=O)N[C@@H]3C[C@H]4CC[C@@H](C3)N4S(=O)(=O)CC3CCN(CCCC(F)(F)F)CC3)c(Cl)cc2N1 | 0.97 | 1 | 0.96 | 1 | – | 0.61
CC(C)Nc1cc(-c2c[nH]c(C(=O)N[C@H](CO)c3cccc(Cl)c3)c2)c(Cl)cn1 [ULIXERTINIB] | 1 | – | 0.93 | 0.68 | 0.74 | 0.08
CCCN1CCN(c2ccc(C(=O)NC3(C(=O)NCC#N)CCCCC3)cc2)CC1 [BALICATIB] | 0.79 | 0.95 | 1 | 1 | 0.86 | –
COc1cc2c(NCC3CCN(C)CC3)cc(-c3ccc(C)o3)nc2cc1OCCCN1CCCC1 | -0.36 | -0.29 | 0.34 | -0.64 | -0.51 | -0.3
O=C(NCC1(c2nc(-c3ccccc3)cs2)CCOCC1)c1cccc(-c2noc(C(F)(F)F)n2)c1 | 0.36 | 0.64 | 1 | 1 | – | 0.44
CNC(=O)O[C@H]1COc2ccc(N3CCN(C4COC4)CC3)cc2[C@@H]1NC(=O)c1ccc(F)cc1 | 0.89 | 0.97 | 1 | 1 | – | 0.67
Cc1ccc(C(=O)NCCCCCC(=O)Nc2ccccc2N)cc1 | 1 | – | – | – | 0.95 and 0.84 | –
Cn1cc(NC(=O)c2cc(F)cc(F)c2)c(C(=O)NC2CCNCC2)n1 | 0.67 | 0.9 | 0.67 | 0.63 | 0.71 | 1
Oc1ccc(-c2c(-c3ccccc3)nn3c(C(F)(F)F)cc(C(F)(F)F)nc23)cc1 | 1 | 0.97 | 1 | 1 | – | 0.27
O=C(COc1ccc(-c2oc3cc(O)c(C(=O)O)cc3c2C#Cc2cccc(Cl)c2)cc1)NC1CC1 | 0.87 | 0.84 | 0.84 | 0.39 | 0.84 | -0.06
CC(C)N(C[C@H]1O[C@@H](n2cnc3c(N)ncnc32)[C@H](O)[C@@H]1O)[C@H]1C[C@@H](CCc2nc3cc(C(C)(C)C)ccc3[nH]2)C1 [PINOMETOSTAT] | 0.61 | 0.77 | 1 | 1 | 0.85 | –
CC[C@H](C)[C@H](NC(C)=O)C(=O)N[C@@H](CCC(=O)O)C(=O)N[C@H](C(=O)N[C@H](C=O)CC(=O)O)[C@@H](C)O.O=C(O)C(F)(F)F (Ac-IETD-aldehyde) | 0.57 | 1 | 0.25 | 1 | – | 0.42
O=C(CCCCCCC(=O)Nc1ccc([C@H]2O[C@@H](CSc3nc(-c4ccccc4)c(-c4ccccc4)o3)C[C@@H](c3ccc(CO)cc3)O2)cc1)NO [TUBACIN] | 0.85 | 1 | 1 | 1 | 0.73 | -0.34
Cn1ncc2c(-c3c(-c4ccc(F)cn4)nn4c3COC(C)(C)C4)ccnc21 | 0.85 | 0.8 | 0.66 | 0.55 | 0.95 | 1
O=C(CCl)Nc1ccc(S(=O)(=O)c2ccc(NC(=O)CCl)cc2)cc1 | -0.4 | -0.18 | -0.61 | -0.42 | 0.05 | -0.63
Cc1ccc(C(=O)Nc2ccc(S(=O)(=O)[O-])c3cc(S(=O)(=O)[O-])cc(S(=O)(=O)[O-])c23)cc1NC(=O)c1cccc(NC(=O)Nc2cccc(C(=O)Nc3cc(C(=O)Nc4ccc(S(=O)(=O)[O-])c5cc(S(=O)(=O)[O-])cc(S(=O)(=O)[O-])c45)ccc3C)c2)c1.[Na+].[Na+].[Na+].[Na+].[Na+].[Na+] [SURAMIN HEXASODIUM] | 0.7 | 0.83 | 0.42 | 1 | – | 0.59
